# Data as given in patent US20040101840A1, “Identification, cloning and characterization of a novel pc-1 gene differentially expressed in prostate cells and tissues” (priority 2003, published 2004).
# What was measured:
# Type in all cases: cell-based, human
# [1] = test system: PC-1 gene expression in C4-2 cells; assay: Androgen regulation of PC-1 gene expression in C4-2 cells (RT-PCR and Northern blot); conditions: two days exposure
# Method: (§1) Parental LNCaP and its derivative cell lines, C4, C4-2, and C4-2B, were described previously. ARCaP cells, a highly invasive prostate cancer cell line, were generated by our lab from the ascites fluid of a person with Al and aggressive human prostate cancer. All other cell lines were obtained from ATCC and were cultured in TB containing 5% FBS, as described previously. To test the effect of androgen in affecting PC-1 gene expression in prostate cancer cell lines, cells were exposed to a synthetic androgen methyltrioenolone (R1881) at a concentration of 0.1, 1, and 10 nM. To assess the specificity of androgen induction of PC-1 gene expression, some of the cells exposed to 10 nM of R1881 were also treated with an antiandrogen Casodex, 10 μM. […]
# (§2) First strain cDNA was synthesized from 1 μg of total RNA with a hexamer random primer obtained from Perkin-Elmer using a MMLV reverse transcriptase obtained from Life Technologies, Inc. (Grand Island, N.Y.) according to the manufacturer's instructions. cDNAs obtained were subjected to Taq DNA polymerase PCR reaction under the condition of 94° for 1 minute, 60° for 1 minute, 72° for 45 seconds, or 94° for 1 minute, 53° for 1 minute, and 72° for 1 minute for 30 cycles, and an extension of 72° for 10 minutes. […] The PCR. products were evaluated on a 1% agarose gel and confirmed by Southern blot analysis. […]
# [2] = test system: D52/N8 gene expression in LNCaP and C4-2 cells; assay: Androgen regulation of D52/N8 gene expression in prostate cancer cell lines
# Method: as §1, with “[…].” for “All other cell lines were obtained from ATCC and were cultured in TB containing 5% FBS, as described previously.”
# as §2
# [3] = test system: PC-1 gene expression in LNCaP cells; assay: Androgen regulation of PC-1 gene expression in LNCaP cells (RT-PCR and Northern blot); conditions: two days exposure
# Method: as §1, §2
# [4] = test system: PC-1 gene expression in LNCaP and C4-2 cells; assay: Antiandrogen blockade of androgen-induced PC-1 gene expression in prostate cancer cell lines
# Method: Parental LNCaP and its derivative cell lines, C4, C4-2, and C4-2B, were described previously. ARCaP cells, a highly invasive prostate cancer cell line, were generated by our lab from the ascites fluid of a person with Al and aggressive human prostate cancer. […]. To test the effect of androgen in affecting PC-1 gene expression in prostate cancer cell lines, cells were exposed to a synthetic androgen methyltrioenolone (R1881) at a concentration of 0.1, 1, and 10 nM. […] The culture was allowed to continue for two days and total cellular RNA was isolated and subjected to RT-PCR and Northern blot analysis for the expression of PC-1 gene. […]
# as §2
SMILES,concentration at which steady-state levels of PC-1 gene expression are increased [1] [nM],regulation of D52/N8 expression by androgen ([2]; R1881 alone),concentration required to increase PC-1 gene expression [3] [nM],"effect on R1881-increased expression of the PC-1 gene ([4]; coadministration with R1881, Casodex (10 nM) as printed in FIG. 5 legend)","effect on androgen-induced PC-1 gene expression ([4]; coadministration with androgen, LNCaP and C4-2)",inhibition of D52/N8 expression ([2]; coadministration of R1881 and Casodex)
"C[C@]1(O)CC[C@H]2[C@@H]3CCC4=CC(=O)CCC4=C3C=C[C@@]21C [R1881, methyltrioenolone]",0.1,not regulated,1,–,–,–
CC(O)(CS(=O)(=O)c1ccc(F)cc1)C(=O)Nc1ccc(C#N)c(C(F)(F)F)c1 (stereo not drawn) [Casodex],–,–,–,blocked,effectively terminated,nor was its expression inhibited
